# Source: patent US9676715B2, “Bis-indolic derivatives, a process for preparing the same and their uses as a drug” (UNIVERSITE JOSEPH FOURIER, priority 2011, dated 2017)
# Read-outs that look alike come from different tables or passages of the source.
# Assays:
# [1] = system: S. aureus ATCC 106414 (VISA); assay: MIC, microdilution method (9.1); assay type: cell-based, Staphylococcus aureus; conditions: Staphylococcus aureus, read after 18 h, read-out: MIC
# Summary of the method: (§1)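 Using CLSI M07-A8 broth microdilution, MH broth, 37° C. in air; inoculum 5×10^5 CFU/ml; drug range 0.50-128 mg/L final.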
# [2] = system: S. aureus CIP 65.25 (MRSA); assay: MIC, microdilution method (9.1); assay type: cell-based, Staphylococcus aureus; conditions: Staphylococcus aureus, read after 18 h, read-out: MIC
# Summary of the method: as §1
# S. aureus SA-1199B = assay: MIC, microdilution method (9.1); assay type: cell-based, Staphylococcus aureus; conditions: Staphylococcus aureus, SA1199B, 18 h
# Summary of the method: as §1
# S. aureus ATCC 29213 = assay: MIC, microdilution method (9.1); assay type: cell-based, Staphylococcus aureus; conditions: Staphylococcus aureus, ATCC29213, read after 18 h, read-out: MIC
# Summary of the method: as §1
# [3] = system: S. aureus ATCC 33592 (MRSA); assay: MIC, microdilution method (9.1); assay type: cell-based, Staphylococcus aureus; conditions: Staphylococcus aureus, read after 18 h, read-out: MIC
# Summary of the method: as §1
# S. aureus CIP 65.6 = assay: MIC, microdilution method (9.1); assay type: cell-based, Staphylococcus aureus; conditions: Staphylococcus aureus, CIP65, read after 18 h, read-out: MIC
# Summary of the method: as §1
# S. aureus ATCC 9144 = assay: MIC, microdilution method (9.1); assay type: cell-based, Staphylococcus aureus; conditions: Staphylococcus aureus, ATCC9144, read after 18 h, read-out: MIC
# Summary of the method: as §1
# S. aureus ATCC 25923 = assay: MIC, microdilution method (9.1); assay type: cell-based, Staphylococcus aureus; conditions: Staphylococcus aureus, ATCC25923, read after 18 h, read-out: MIC
# Summary of the method: as §1
# S. aureus ATCC 6538 = assay: MIC, microdilution method (9.1); assay type: cell-based, Staphylococcus aureus; conditions: Staphylococcus aureus, ATCC6538, read after 18 h, read-out: MIC
# Summary of the method: as §1
# S. aureus CIP 103428 = assay: MIC, microdilution method (9.1); assay type: cell-based, Staphylococcus aureus; conditions: Staphylococcus aureus, CIP103428, read after 18 h, read-out: MIC
# Summary of the method: as §1
# [4] = system: S. epidermidis ATCC 12228; assay: MIC, microdilution method (9.1); assay type: cell-based, Staphylococcus epidermidis; conditions: Staphylococcus epidermidis, ATCC12228, read after 18 h, read-out: MIC
# Summary of the method: as §1
# [5] = system: S. epidermidis CIP 103627; assay: MIC, microdilution method (9.1); assay type: cell-based, Staphylococcus epidermidis; conditions: Staphylococcus epidermidis, CIP103627, read after 18 h, read-out: MIC
# Summary of the method: as §1
# S. epidermidis CIP 81.55 = assay: MIC, microdilution method (9.1); assay type: cell-based, Staphylococcus epidermidis; conditions: Staphylococcus epidermidis, CIP81, read after 18 h, read-out: MIC
# Summary of the method: as §1
# [6] = system: MRC5 (human lung fibroblast); assay: In vitro cytotoxicity; assay type: cell-based; conditions: read-out: % of cellular growth inhibition
# Experimental: (§2) In vitro cytotoxicity was assayed on three cell lines—KB (human mouth carcinoma), MCR5 (human lung fibroblast) and HCT116 (human colon tumor). Results are presented in table IV as % of cellular growth inhibition in presence of 10^−5 M and 10^−6 M of the tested bis-indolic derivatives.
# [7] = system: KB (human mouth carcinoma); assay: In vitro cytotoxicity; assay type: cell-based; conditions: read-out: % of cellular growth inhibition
# Experimental: as §2
# [8] = system: HCT116 (human colon tumor); assay: In vitro cytotoxicity; assay type: cell-based; conditions: read-out: % of cellular growth inhibition
# Experimental: as §2
# S. pneumoniae ATCC 6303 = assay: MIC, microdilution method (9.1); assay type: cell-based, Streptococcus pneumoniae; conditions: Streptococcus pneumoniae, ATCC6303, 10% sheep blood, 5% CO2, 18 h, read-out: MIC
# Experimental: (§3) The microdilution method recommended by the Clinical and Laboratory Standard Institute [M07-A8, Vol. 29, No. 2] was used. The activity of indolic compounds was tested against 29 bacterial strains belonging to 17 different species and 12 different genera (Staphylococcus, Streptococcus, Enterococcus, Listeria, Bacillus, Haemophilus, Escherichia, Klebsiella, Enterobacter, Serratia, Pseudomonas, and Acinetobacter). Bacterial inocula were prepared in Mueller Hinton broth (MH2, bioMérieux, Marcy L'Etoile, France), supplemented with 10% sheep blood for fastidious species (i.e., Streptococcus pneumoniae and Haemophilus influenzae). They were dispensed in 96 well microtiter plates (5×10^5 CFU/ml of final inoculum). Indolic compounds were added to the wells as to obtain two-fold serial concentrations (0.50-128 mg/L of final concentrations). Plates were incubated at 37° C. in ambient air, or at 37° C. in 5% CO2 enriched atmosphere for fastidious species. […] Drug-free cultures served as growth controls. Cultures receiving gentamicin, ciprofloxacin or cefotaxime served as positive controls.
# E. faecium CIP 54.32 = assay: MIC, microdilution method (9.1); assay type: cell-based, Enterococcus faecium; conditions: Enterococcus faecium, CIP54, 18 h, read-out: MIC
# Experimental: as §3
# [9] = system: S. pyogenes (group A) CIP 104226; assay: MIC, microdilution method (9.1); assay type: cell-based, Streptococcus pyogenes; conditions: Streptococcus pyogenes, CIP104226, 18 h, read-out: MIC
# Experimental: as §3
# [10] = system: HCT116 (human colon tumor); assay: In vitro cytotoxicity; assay type: cell-based; conditions: HCT-116, HCT116, from 100 μM to 0.005 μM in DMSO, duplicate
# S. mitis CIP 103335 = assay: MIC, microdilution method (9.1); assay type: cell-based, Streptococcus mitis; conditions: Streptococcus mitis, CIP103335, 18 h, read-out: MIC
# Experimental: as §3
# S. pneumoniae ATCC 49619 = assay: MIC, microdilution method (9.1); assay type: cell-based; conditions: Streptococcus pneumoniae, ATCC49619, 10% sheep blood, 5% CO2, 18 h
# Experimental: as §3
# [11] = system: Pseudomonas aeruginosa CIP 5933; assay: MIC, microdilution method (9.1); assay type: cell-based; conditions: CIP5933, 18 h, read-out: MIC
# Experimental: as §3
# [12] = system: Enterobacter cloacae ATCC13047; assay: MIC, microdilution method (9.1); assay type: cell-based; conditions: 18 h
# Experimental: as §3
# [13] = system: Serratia marcescens CIP 103551; assay: MIC, microdilution method (9.1); assay type: cell-based; conditions: CIP103551, 18 h
# Experimental: as §3
# [14] = system: Klebsiella pneumoniae API ATCC 35657; assay: MIC, microdilution method (9.1); assay type: cell-based; conditions: ATCC35657, 18 h, read-out: MIC
# Experimental: as §3
# [15] = system: Bacillus subtilis CIP 5262; assay: MIC, microdilution method (9.1); assay type: cell-based; conditions: CIP5262, 18 h, read-out: MIC
# Experimental: as §3
# [16] = system: Escherichia coli ATCC 25922; assay: MIC, microdilution method (9.1); assay type: cell-based; conditions: ATCC25922, 18 h
# Experimental: as §3
# [17] = system: Haemophilus influenzae ATCC 49766; assay: MIC, microdilution method (9.1); assay type: cell-based
# Experimental: as §3
# [18] = system: Acinetobacter baumanii ATCC 19606; assay: MIC, microdilution method (9.1); assay type: cell-based; conditions: Acinetobacter baumannii, ATCC19606, 18 h, read-out: MIC
# Experimental: as §3
# [19] = system: Listeria innocua CIP 80.11; assay: MIC, microdilution method (9.1); assay type: cell-based; conditions: CIP80, 18 h, read-out: MIC
# Experimental: as §3
# [20] = system: S. agalactiae (group B) ATCC 12400; assay: MIC, microdilution method (9.1); assay type: cell-based, Streptococcus agalactiae; conditions: Streptococcus agalactiae, ATCC12400, 18 h, read-out: MIC
# Experimental: as §3
# E. faecalis ATCC 29212 = assay: MIC, microdilution method (9.1); assay type: cell-based, Enterococcus faecalis; conditions: Enterococcus faecalis, ATCC29212, 18 h, read-out: MIC
# Experimental: as §3
# [21] = system: 29 bacterial strains belonging to 17 different species; assay: MIC determination, overall statements on the bacterial panel; assay type: cell-based; conditions: summary of MIC results
# Experimental: as §3
SMILES,MIC [1] [mg/L],MIC [2] [mg/L],MIC (S. aureus SA-1199B) [mg/L],MIC (S. aureus ATCC 29213) [mg/L],MIC [3] [mg/L],MIC (S. aureus CIP 65.6) [mg/L],MIC (S. aureus ATCC 9144) [mg/L],MIC (S. aureus ATCC 25923) [mg/L],MIC (S. aureus ATCC 6538) [mg/L],MIC (S. aureus CIP 103428) [mg/L],MIC [4] [mg/L],MIC [5] [mg/L],MIC (S. epidermidis CIP 81.55) [mg/L],MIC (S. pneumoniae ATCC 6303) [mg/L],MIC (E. faecium CIP 54.32) [mg/L],MIC [9] [mg/L],MIC (S. mitis CIP 103335) [mg/L],MIC (S. pneumoniae ATCC 49619) [mg/L],MIC [11] [mg/L],MIC [12] [mg/L],further results
"CC(C)(C)OC(=O)NCC(NC(=O)c1c[nH]c2ccc(Cl)cc12)c1c[nH]c2ccc(Cl)cc12 (stereo not shown) [Compound 6a, tert-Butyl 2-(5-chloro-1H-indol-3-yl)-2-(5-chloro-1H-indole-3-carboxamido)ethylcarbamate]",4,4,4,≤ 2,4,4,4,4,4,4,4,4,4,32,> 128,64,64,64,> 128,> 128,"inhibition at 10 µM ([6]; 10^−5 M): 82 ± 4%; inhibition at 1 µM ([6]; 10^−6 M): 0%; inhibition at 10 µM ([7]; 10^−5 M): 87 ± 6%; inhibition at 1 µM ([7]; 10^−6 M): 4%; inhibition at 10 µM ([8]; HCT-116, 10^−5 M): 80 ± 9%; inhibition at 1 µM ([8]; HCT-116, 10^−6 M): 0%; IC50 ([10]; first value): 4.35 µM; IC50 ([10]; second value): 3.79 µM; MIC [13]: > 128 mg/L; MIC [14]: > 128 mg/L; MIC [15]: 64 mg/L; MIC [16]: > 128 mg/L; MIC ([17]; ATCC49766, Haemophilus influenzae ATCC 49766, 10% sheep blood, 5% CO2, 18 h, read-out: MIC): > 128 mg/L; MIC [18]: > 128 mg/L; MIC [19]: > 128 mg/L; MIC [20]: 64 mg/L; MIC (E. faecalis ATCC 29212): > 128 mg/L"
"CC(C)(C)OC(=O)NCC(NC(=O)C(F)(F)F)c1c[nH]c2ccc(Br)cc12 (stereo not shown) [Compound 9, tert-Butyl (2-(5-bromo-1H-indol-3-yl)-2-(2,2,2-trifluoroacetamido)ethyl)carbamate]",128,128,128,64,128,128,> 128,> 128,128,128,> 128,> 128,> 128,> 128,> 128,> 128,> 128,> 128,> 128,> 128,"intrinsic antibacterial activity (in words) [21]: lack of intrinsic antibacterial activity; MIC [13]: > 128 mg/L; MIC [14]: > 128 mg/L; MIC [15]: 128 mg/L; MIC [16]: > 128 mg/L; MIC ([17]; Haemophilus influenzae, ATCC49766, 18 h): > 128 mg/L; MIC [18]: > 128 mg/L; MIC [19]: > 128 mg/L; MIC [20]: > 128 mg/L; MIC (E. faecalis ATCC 29212): > 128 mg/L"
